For this experiment, the system named is CD2F1 mice, ip Colon 26 adenocarcinoma, median survival T/C. In words: NCI In Vivo Anticancer Drug Screen. Data for tumor model Colon 26 Adenocarcinoma (intraperitoneal) in CD2F1 (CDF1) mice. As to conditions: endpoint: median survival time, higher = longer survival. The procedure: The antitumor activity of compounds was measured in mice bearing transplantable tumors. Survival or tumor size were measured and the results are expressed as the measurement made in the treated group (T) divided by the measurement made in the vehicle treated control group (C). The tumor model used in this assay is Colon 26 Adenocarcinoma (intraperitoneal) in CD2F1 (CDF1) mice

The mark [1] stands for this setting: dose: 500.0 micrograms/kg/injection, schedule: Q01DX001 (ip), vehicle: saline + alcohol.
Where [2] appears, read: dose: 12.5 mg/kg/injection, schedule: Q04DX003 (ip), vehicle: saline with Tween-80.
Setting [3] is: dose: 25.0 mg/kg/injection, schedule: Q04DX003 (ip), vehicle: saline with Tween-80.
The mark [4] stands for this setting: dose: 50.0 mg/kg/injection, schedule: Q04DX003 (ip), vehicle: saline with Tween-80.
The mark [5] stands for this setting: dose: 100.0 mg/kg/injection, schedule: Q04DX003 (ip), vehicle: saline with Tween-80.
[6] abbreviates: dose: 200.0 mg/kg/injection, schedule: Q04DX003 (ip), vehicle: saline with Tween-80.

“And” between values parts separate entries of the source, which are not always exact repeats. Identical values can stand only once. Inconclusive results and toxic doses are left out. *1 amine or outer side, *2 acyl side, *3 side chain or, on linkers, in order; H or OH if unused. Where a SMILES comes first, the peptide text is derived from it. Bridges are numbered along the chain shown (N, C = ends). Roman numbers before positions name the chains, in order. [ ]: non-standard residue; d: D form. Actinocin(1to9) = Cc1c2oc3c(C)ccc(C(=O)[*:2])c3nc-2c(C(=O)[*:1])c(N)c1=O; NMeV = CN[CH](C(=O)O)C(C)C; Aze = O=C(O)[CH]1CCN1; Sar = CNCC(=O)O

As for `CN(C)CCCNc1ccc(NCCCN(C)C)c2c1C(=O)c1ccccc1C2=O`, the T/C is, setting by setting: (dose: 4.0 mg/kg/injection, schedule: Q01DX009 (ip), vehicle: saline) 101 % of control; (dose: 8.0 mg/kg/injection, schedule: Q01DX009 (ip), vehicle: saline) 106 % of control; (dose: 16.0 mg/kg/injection, schedule: Q01DX009 (ip), vehicle: saline) 100 % of control; (dose: 32.0 mg/kg/injection, schedule: Q01DX009 (ip), vehicle: saline) 97 % of control.

Turning to `CC(C)NC(=O)OCc1c(COC(=O)NC(C)C)c(-c2ccc(Cl)c(Cl)c2)n2c1CCC2`, the T/C reads like this: (dose: 2.5 mg/kg/injection, schedule: Q01DX009 (ip), vehicle: distilled water + Tween-80) 173 % of control; (dose: 5.0 mg/kg/injection, schedule: Q01DX009 (ip), vehicle: distilled water + Tween-80) 162 % of control; (dose: 10.0 mg/kg/injection, schedule: Q01DX009 (ip), vehicle: distilled water + Tween-80) 232 % of control; (dose: 20.0 mg/kg/injection, schedule: Q01DX009 (ip), vehicle: distilled water + Tween-80) 289 % of control; (dose: 40.0 mg/kg/injection, schedule: Q01DX009 (ip), vehicle: distilled water + Tween-80) 163 % of control.

As to `Cc1c2oc3c(C)c([N+](=O)[O-])cc(C(=O)NC4C(=O)NC(C(C)C)C(=O)N5CCCC5C(=O)N(C)CC(=O)N(C)C(C(C)C)C(=O)OC4C)c3nc-2c(C(=O)NC2C(=O)NC(C(C)C)C(=O)N3CCCC3C(=O)N(C)CC(=O)N(C)C(C(C)C)C(=O)OC2C)c(N)c1=O` (stereo unspecified), the T/C under setting [1] is 112 % of control.

`Cc1c2oc3c(C)c(N)cc(C(=O)NC4C(=O)NC(C(C)C)C(=O)N5CCCC5C(=O)N(C)CC(=O)N(C)C(C(C)C)C(=O)OC4C)c3nc-2c(C(=O)NC2C(=O)NC(C(C)C)C(=O)N3CCCC3C(=O)N(C)CC(=O)N(C)C(C(C)C)C(=O)OC2C)c(N)c1=O` (stereo unspecified): the T/C was 102 % of control under setting [1] and 102 % of control (dose: 1000.0 micrograms/kg/injection, schedule: Q01DX001 (ip), vehicle: saline + alcohol).

With `CCC[P+](c1ccccc1)(c1ccccc1)c1ccccc1`, the T/C runs as follows: (dose: 3.12 mg/kg/injection, schedule: Q04DX003 (ip), vehicle: saline with Tween-80) 112 % of control; (dose: 6.25 mg/kg/injection, schedule: Q04DX003 (ip), vehicle: saline with Tween-80) 107 % of control; under setting [2], 104 % of control; under setting [3], 110 % of control; under setting [4], 110 % of control.

Take `Cc1c2oc3c(C)ccc(C(=O)NC4C(=O)NC(C(C)C)C(=O)N5CCCC5C(=O)N(C)CC(=O)N(C)C(C(C)C)C(=O)OC4C)c3nc-2c(C(=O)NC2C(=O)NC(C(C)C)C(=O)N3CCC3C(=O)N(C)CC(=O)N(C)C(C(C)C)C(=O)OC2C)c(N)c1=O` (stereo unspecified) (I: TV[Aze][Sar][NMeV] / II: TVP[Sar][NMeV]; ester I:1-I:C, II:1-II:C; linker I:N-II:N via Actinocin(1to9); configuration not given here): the T/C reads like this: (dose: 0.08 mg/kg/injection, schedule: Q04DX003 (ip), vehicle: saline + alcohol) 100 % of control; (dose: 0.14 mg/kg/injection, schedule: Q04DX003 (ip), vehicle: saline + alcohol) 123 % of control; (dose: 0.23 mg/kg/injection, schedule: Q04DX003 (ip), vehicle: saline + alcohol) 119 % of control; (dose: 0.65 mg/kg/injection, schedule: Q04DX003 (ip), vehicle: saline + alcohol) 151 % of control; (dose: 270.0 micrograms/kg/injection, schedule: Q04DX003 (ip), vehicle: saline + alcohol) 108 % of control; (dose: 375.0 micrograms/kg/injection, schedule: Q01DX001 (ip), vehicle: saline + alcohol) 119 % of control. Besides, the T/C is 151 % of control (dose: 450.0 micrograms/kg/injection, schedule: Q04DX003 (ip), vehicle: saline + alcohol); 102 % of control (dose: 750.0 micrograms/kg/injection, schedule: Q01DX001 (ip), vehicle: saline + alcohol); 157 % of control (dose: 750.0 micrograms/kg/injection, schedule: Q04DX003 (ip), vehicle: saline + alcohol).

Turning to `Cc1ncc([N+](=O)[O-])n1CCSC(N)=O`, the T/C reads like this: under setting [2], 94 % of control; under setting [3], 124 % of control and 96 % of control; under setting [4], 89 % of control; under setting [5], 105 % of control and 95 % of control; under setting [6], 90 % of control and 94 % of control; (dose: 400.0 mg/kg/injection, schedule: Q04DX003 (ip), vehicle: saline with Tween-80) 96 % of control.

As for `O=C(O)c1ccc(C(=O)O)c(C(=O)O)c1.[NH-]C1CCCCC1[NH-].[Pt+2]`, the T/C is, setting by setting: (dose: 2.0 mg/kg/injection, schedule: Q01DX004 (ip), vehicle: sodium bicarbonate) 106 % of control; (dose: 3.12 mg/kg/injection, schedule: Q04DX003 (ip), vehicle: sodium bicarbonate) 114 % of control; (dose: 4.0 mg/kg/injection, schedule: Q01DX004 (ip), vehicle: sodium bicarbonate) 101 % of control; (dose: 6.25 mg/kg/injection, schedule: Q04DX003 (ip), vehicle: sodium bicarbonate) 111 % of control; (dose: 8.0 mg/kg/injection, schedule: Q01DX004 (ip), vehicle: sodium bicarbonate) 105 % of control; (dose: 8.8 mg/kg/injection, schedule: Q01DX001 (ip), vehicle: saline) 150 % of control. The T/C reads like this: (dose: 8.8 mg/kg/injection, schedule: Q01DX001 (iv), vehicle: saline) 96 % of control; (dose: 9.1 mg/kg/injection, schedule: Q04DX004 (iv), vehicle: sodium bicarbonate) 105 % of control; (dose: 12.5 mg/kg/injection, schedule: Q04DX003 (ip), vehicle: sodium bicarbonate) 167 % of control; (dose: 13.2 mg/kg/injection, schedule: Q01DX001 (iv), vehicle: saline) 87 % of control; (dose: 13.5 mg/kg/injection, schedule: Q04DX004 (iv), vehicle: sodium bicarbonate) 104 % of control; (dose: 19.8 mg/kg/injection, schedule: Q01DX001 (ip), vehicle: saline) 92 % of control. The T/C (dose: 20.0 mg/kg/injection, schedule: Q04DX004 (iv), vehicle: sodium bicarbonate) was 114 % of control; the T/C (dose: 25.0 mg/kg/injection, schedule: Q04DX003 (ip), vehicle: sodium bicarbonate) is 167 % of control; the T/C (dose: 29.6 mg/kg/injection, schedule: Q01DX001 (ip), vehicle: saline) is 96 % of control; the T/C (dose: 35.0 mg/kg/injection, schedule: Q04DX002 (ip), vehicle: sodium bicarbonate) is 103 % of control; the T/C (dose: 44.4 mg/kg/injection, schedule: Q01DX001 (iv), vehicle: saline) is 121 % of control; the T/C (dose: 50.0 mg/kg/injection, schedule: Q04DX003 (ip), vehicle: sodium bicarbonate) is 159 % of control. In addition, the T/C (dose: 100.0 mg/kg/injection, schedule: Q04DX003 (ip), vehicle: sodium bicarbonate) was 101 % of control.

On to `Nc1nc2c(ncn2C2OC(CO)C(O)C2N)c(=O)[nH]1` (stereo unspecified), for which the T/C (dose: 3.0 mg/kg/injection, schedule: Q04DX002 (ip), vehicle: saline with Tween-80) was 95 % of control; the T/C (dose: 6.0 mg/kg/injection, schedule: Q04DX002 (ip), vehicle: saline with Tween-80) is 105 % of control; the T/C (dose: 12.0 mg/kg/injection, schedule: Q04DX002 (ip), vehicle: saline with Tween-80) is 88 % of control; the T/C (dose: 24.0 mg/kg/injection, schedule: Q04DX002 (ip), vehicle: saline with Tween-80) is 88 % of control; the T/C (dose: 48.0 mg/kg/injection, schedule: Q04DX002 (ip), vehicle: saline with Tween-80) was 96 % of control; the T/C (dose: 96.0 mg/kg/injection, schedule: Q04DX002 (ip), vehicle: saline with Tween-80) is 93 % of control.

For the compound `Cc1ccc(S(=O)(=O)N/N=C/C(=O)O)cc1`, the T/C is 174 % of control under setting [2]; 177 % of control under setting [3]; 212 % of control under setting [4]; 196 % of control under setting [5]; 193 % of control under setting [6].

For `NC(=O)c1ncn(C2OC(CO)C(O)C2O)c1O` (stereo unspecified), the T/C (dose: 50.0 mg/kg/injection, schedule: Q04DX002 (ip), vehicle: Klucel (hydroxypropylcellulose) (HPC)) was 107 % of control; the T/C (dose: 100.0 mg/kg/injection, schedule: Q04DX002 (ip), vehicle: Klucel (hydroxypropylcellulose) (HPC)) is 98 % of control; the T/C (dose: 200.0 mg/kg/injection, schedule: Q04DX002 (ip), vehicle: Klucel (hydroxypropylcellulose) (HPC)) was 107 % of control; the T/C (dose: 400.0 mg/kg/injection, schedule: Q04DX002 (ip), vehicle: Klucel (hydroxypropylcellulose) (HPC)) was 111 % of control.

(Values after PubChem BioAssay AID210 (DTP/NCI, 2004).)
